# Results as given in patent US10617678B2, “Treatment of restenosis using temsirolimus” (MERCATOR MEDSYSTEMS, INC., priority 2016, dated 2020).
# Entries after “also recorded” stand apart in the source; their conditions may differ.
# Key:
# [1] = system: femoral artery injured by angioplasty overstretch; assay: Histopathology in porcine model of femoral artery injury; type: in vivo, Yorkshire pigs
# [2] = system: cell proliferation in the vessel wall and adventitia; assay: Ki-67 staining of cellular proliferation in injured femoral vessels; type: in vivo, Yorkshire pigs; settings: day 3, 7 and 28; 1.5 ml of 238 μg/ml perivascular injection
# [3] = Pharmacokinetics: whole blood concentrations after adventitial injection; type: in vivo, Yorkshire pigs
# Description: Temsirolimus Preparation. The 25 mg/ml of Torisel® (temsirolimus) was diluted to 10 mg/ml with the supplied diluent and further diluted to 476 μg/ml in 0.9% sodium chloride solution. Then, the 476 μg/ml temsirolimus was mixed at 1:1 ratio with a contrast medium, Isovue-370, for a final temsirolimus concentration of 238 μg/ml. This temsirolimus preparation was subsequently administered in temsirolimus-treated group pigs. Similarly, a control solution was prepared by mixing 0.9% sodium chloride solution at 1:1 ratio with a contrast medium, Isovue-370. This control solution was administered in control group pigs.
# Temsirolimus-Treated Group.
# Pharmacokinetics. Whole blood samples were taken following each injection at 5 minutes, 20 minutes, 1 hour, and then 24 hours and upon sacrifice. Whole blood samples were analyzed for circulating temsirolimus and sirolimus concentrations. FIG. 14A and FIG. 14B show the levels of temsirolimus and sirolimus, respectively, circulating in whole blood at 1 hour, and 3, 7, and 28 days post-procedure. The mean temsirolimus level in whole blood was highest at 1 hour after the first injection (32.1±11.0 ng/mL) and decreased by an order of magnitude within 24 hours (2.4±1.0 ng/mL).
# [4] = Pharmacokinetics: concentrations in harvested vessel tissues; type: in vivo, Yorkshire pigs; settings: post-dosing
# [5] = clinical observations, clinical pathology, post mortem tissue analysis; adventitial injection with Bullfrog device
# [6] = 1.5 ml of 238 μg/ml perivascular injection, injured femoral artery
smiles,measurement,setting,value
CO[C@H]1C[C@@H]2CC[C@@H](C)[C@@](O)(O2)C(=O)C(=O)N2CCCC[C@H]2C(=O)O[C@H]([C@H](C)C[C@@H]2CC[C@@H](OC(=O)C(C)(CO)CO)[C@H](OC)C2)CC(=O)[C@H](C)/C=C(\C)[C@@H](O)[C@@H](OC)C(=O)[C@H](C)C[C@H](C)/C=C/C=C/C=C/1C [temsirolimus],neointima formation,[1]; [6],no or minimal to mild and non-stenosing neointima formation
same,re-endothelialization,[1]; [6],complete or near complete re-endothelialization
same,healing of treated vessels (histopathology),[1]; 1.5 ml of 238 μg/ml temsirolimus into adventitia/perivascular tissue of each injured femoral artery,fully or nearly fully healed as early as day 7
same,cell proliferation throughout the vessel wall (Ki-67) compared to controls,[2],moderate to marked decrease; also recorded: reduced cellular proliferation
same,temsirolimus concentration in whole blood,[3]; 7 days post-procedure,below the limit of quantitation
same,temsirolimus concentration in whole blood,[3]; 28 days post-procedure,below the limit of quantitation
same,concentration at 1 h,"[3]; Yorkshire, pig, whole blood, 357 µg per artery (1.5 ml of 238 µg/ml), 1 hour after the first injection, read-out: mean temsirolimus level in whole blood",32.1 ± 11 ng/mL
same,concentration at 24 h,"[3]; Yorkshire, pig, whole blood, 357 µg per artery (1.5 ml of 238 µg/ml), 24 hours, read-out: mean temsirolimus level in whole blood",2.4 ± 1 ng/mL
same,temsirolimus concentration in whole blood,[3]; between 24 hours and 3 days,continued to decrease
same,time temsirolimus was measured in local vascular tissue,[4],up to 28 days
same,local or systemic toxicity,[5],no evidence of local or systemic toxicity
